One data set has as its system platelet aggregation. Description: Antithrombotic action: collagen-induced platelet aggregation in platelet-rich plasma (Born and Cross). The class given is cell-based. The note with it: Homo sapiens, 10 min, platelet-rich plasma of healthy subjects, incubated 10 minutes at 37° C., 50% change in optical density, read-out: Inhibition of platelet aggregation EC50. How it is done:
2. Antithrombotic Action Methodology Platelet aggregation is measured according to the method of Born and Cross (J. Physiol. 170, 397 (1964)) in platelet-rich plasma of healthy subjects. To inhibit clotting, the blood is treated with sodium citrate 3.14% in the volume ratio 1:10. Collagen-induced Aggregation The course of the decrease in the optical density of the platelet suspension is measured photometrically and recorded after addition of the aggregation-inducing substance. From the angle of inclination of the density curve, the aggregation rate is deduced. The point on the curve at which the greatest light transmission is present serves for the calculation of the optical density. The amount of collagen is chosen to be as low as possible, but of course such that an irreversibly running reaction curve results. Commercially available collagen from Hormonchemie, Munich is used. Before the addition of collagen, the plasma is incubated at 37° C. with the substance for 10 minutes in each case. From the measured values obtained, an EC50 which relates to a 50% change in the optical density in the sense of an inhibition of aggregation is determined graphically.

A further data set relates to human platelets. Description: Inhibition of the binding of ^3 H-BIBU 52 to human platelets (fibrinogen binding test). The note with it: human platelets in plasma; ^3 H-BIBU 52 5 nM; room temperature, 20 minutes. The method, then: 1. Inhibition of the binding of ^3 H-BIBU 52 to Human Platelets
The free and bound ligand is separated by centrifugation and determined quantitatively by scintillation counting. From the measurements, the inhibition of ^3 H-BIBU 52 binding by the test substance is determined.
To do this, donor blood is taken from an antecubital vein and anticoagulated with trisodium citrate (final concentration 13 mM). The blood is centrifuged at 170×g for 10 minutes and the supernatant platelet-rich plasma (PRP) is removed. The residual blood is rapidly centrifuged once more to obtain plasma. The PRP is diluted 1:10 with autologous plasma. 750 μl are incubated with […] of physiological saline solution, 100 μl of test substance solution, 50 μl of ^14 C-sucrose (3700 Bq) and 50 μl of ^3 H-BIBU 52 (final concentration: 5 nM) at room temperature for 20 minutes. To measure the non-specific binding, instead of the test substance, 100 μl of BIBU 52 (final concentration: 30 μM) is employed. The samples are centrifuged at 10,000×g for 20 seconds and the supernatant is removed. 100 μl thereof are measured to determine the free ligand. The pellet is dissolved in 500 μl of 0.2N NaOH, and 450 μl are mixed with 2 ml of scintillator and 25 μl of 5N HCl and measured. The residual plasma still remaining in the pellet is determined from the ^14 C content, the bound ligand from the ^3 H measurement.

Data set [1] can be described thus: Plasma levels in Rhesus monkeys after oral administration. The class given is in vivo. The note with it: 1 mg/kg.

The structures appear in SMILES notation. Counter-ions that a name gives are not always drawn.

Turning to `CC1CN(CCC2CCNCC2)CCN1c1ccc(OCC(=O)O)cc1` (stereo not drawn) [1(7), 1-(4-Carboxymethyloxyphenyl)-2-methyl-4-[2-(piperidin-4-yl)ethyl]piperazine dihydrochloride], in the data set with platelet aggregation, the EC50 (in general, the concentration at which the effect is half-maximal) came to 240 nM. Besides, the IC50 (usually the midpoint of a concentration-inhibition curve) with human platelets came out at 260 nM. `COC(=O)COc1ccc(N2CCN(CCC3CCNCC3)CC2)cc1.Cl.Cl` [Example 2, 1-(4-Methoxycarbonylmethyloxyphenyl)-4-[2-(piperidin-4-yl)ethyl]piperazine dihydrochloride]: in data set [1], the “period of high plasma levels” value was “more than 8 hours”. Turning to `O=C(O)COc1ccc(N2CCN(CCC3CCNCC3)CC2)cc1` [Example 1, 1-(4-Carboxymethyloxyphenyl)-4-[2-(piperidin-4-yl)ethyl]piperazine dihydrochloride], the concentration for a half-maximal effect (EC50) in the data set on platelet aggregation is 120 nM. This compound also gave an IC50 in the data set with human platelets of 150 nM. As to `CC(C)COC(=O)COc1ccc(N2CCN(CCC3CCNCC3)CC2)cc1OCC(=O)OCC(C)C` [9(1), 1-[3,4-Di(isobutyloxycarbonylmethyloxy)phenyl]-4-[2-piperidin-4-yl)ethyl]piperazine dihydrochloride], the “period of high plasma levels” value in data set [1] was “more than 8 hours”. For `Cl.Cl.O=C(COc1ccc(N2CCN(CCC3CCNCC3)CC2)cc1OCC(=O)OC1CCCCC1)OC1CCCCC1` [9(2), 1-[3,4-Di(cyclohexyloxycarbonylmethyloxy)phenyl]4-[2-(piperidin-4-yl)ethyl]piperazine dihydrochloride], the “period of high plasma levels” value in data set [1] was “more than 8 hours”. Same read-out and setting: the value for `COC(=O)COc1ccc(N2CCN(CCC3CCNCC3)CC2C)cc1.Cl.Cl` (stereo not drawn) [2(4), 1-(4-Methoxycarbonylmethyloxyphenyl)-2-methyl-4-[2-(piperidin-4-yl)ethyl]piperazine dihydrochloride] was “more than 8 hours”. On to `O=C(O)COc1ccc(N2CCN(CCC3CCNCC3)CC2=O)cc1` [1(1), 1-(4-Carboxymethyloxyphenyl)-4-[2-(piperidin-4-yl)ethyl]piperazin-2-onedihydrochloride], for which, in the data set with platelet aggregation, the half-maximal effective concentration (EC50) was found to be 370 nM. This compound showed an IC50 in the data set on human platelets of 360 nM. On the same counts, the results for `O=C(O)CO[C@H]1CC[C@H](N2CCN(CCC3CCNCC3)CC2=O)CC1` [7(1), 1-(trans-4-Carboxymethyloxycyclohexyl)-4-[2-(piperidin-4-yl)ethyl]piperazin-2-one] are 250 nM and 200 nM.

For the compound `CN(CC1CCNCC1)[C@H]1CC[C@H](c2ccc(OCC(=O)O)cc2)CC1` [1(22), trans-1-(4-Carboxymethyloxyphenyl)-4-[(piperidin-4-yl)-N-methylmethylamino]cyclohexane dihydrochloride], the EC50 in the data set on platelet aggregation was 370 nM. This compound had an IC50 in the data set with human platelets of 260 nM. In the case of `O=C(O)C(Oc1ccc(N2CCN(CCC3CCNCC3)CC2)cc1)c1ccccc1` (stereo not drawn) [7(6), 1-[4-(1-Carboxybenzyloxy)phenyl]-4-[2-(piperidin-4-yl)ethyl]piperazine dihydrochloride], the half-maximal inhibitory concentration (IC50) with human platelets stood at 150 nM.

On to `CCOC(=O)COc1ccc(N2CCN(CCC3CCNCC3)CC2)cc1OCC(=O)OCC.Cl.Cl` [Example 9, 1-[3,4-Di(ethoxycarbonylmethyloxy)phenyl]-4-[2-(piperidin-4-yl)ethyl]piperazine dihydrochloride], for which the “period of high plasma levels” value in data set [1] was “more than 8 hours”.

For the compound `O=C(O)COc1ccc(N2CCN(CCC3CCNCC3)CC2)cc1OCC(=O)O` [1(3), 1-[3,4-Di(carboxymethyloxy)phenyl]-4-[2-(piperidin-4-yl)ethyl]piperazine d ihydrochloride], the EC50 with platelet aggregation was found to be 110 nM. In the data set with human platelets, this compound registered an IC50 of 47 nM.

These data come from patent US5994356A, “Carboxylic acid derivatives, medicaments comprising these compounds, their use and processes for their production” (priority 1996, dated 1999).
